# Measured values: paper PMC8854621, “Functionally selective signaling and broad metabolic benefits by novel insulin receptor partial agonists” (Nature Communications, 2022)
# Like-named read-outs stand apart in the source and are kept apart here.
# Tests used:
# [1] = tested on: diabetic Yucatan minipigs; test: Glucose lowering after s.c. bolus in type 1 diabetic Yucatan minipigs (PD); type: in vivo, minipig; settings: individual animal
# Experimental: Data is presented as mean ± SEM, n = 6 animals per dose group. […] Source data are provided as a Source Data file.
# IRPAs were characterized in a Type 1 diabetic Yucatan minipig model. Briefly, male Yucatan minipigs, from Sinclair, were rendered Type 1 diabetic by Alloxan injections following a proprietary protocol developed by Sinclair Research Center (Auxvasse, MO). […] Minipigs used in these studies ranged from 10 months to 3 years old, had plasma glucose levels of approximately 300–400 mg/dL and were instrumented with two Jugular vein vascular access ports (VAP).
# IRPAs were administered to diabetic minipigs by subcutaneous injection. […] After dosing, sampling continued for 18 h.
# SAOS2/B10 cells = test: Cellular proliferation, EdU incorporation (Click-it EdU); type: cell-based
# Excerpt: 3. […]
# Ethynyl-2′-deoxyuridine; ThermoFisher Scientific) assay. […]
substance,measurement,setting,value
"Tresiba: insulin Degludec from Novo Nordisk, a lipidated insulin",ΔGlucose,"[1]; 2 h post s.c. dose, replicate 1",-38 mg/dL
same,ΔGlucose,"[1]; 2 h post s.c. dose, replicate 2",-21 mg/dL
same,ΔGlucose,"[1]; 2 h post s.c. dose, replicate 3",5 mg/dL
same,ΔGlucose,"[1]; 2 h post s.c. dose, replicate 4",79 mg/dL
same,ΔGlucose,"[1]; 2 h post s.c. dose, replicate 5",69 mg/dL
same,ΔGlucose,"[1]; 2 h post s.c. dose, replicate 6",-28 mg/dL
same,ΔGlucose,"[1]; 2 h post s.c. dose, replicate 7",35 mg/dL
same,ΔGlucose,"[1]; 2 h post s.c. dose, replicate 8",-20 mg/dL
same,ΔGlucose,"[1]; 2 h post s.c. dose, replicate 9",40 mg/dL
same,ΔGlucose,"[1]; 2 h post s.c. dose, replicate 10",8 mg/dL
same,ΔGlucose,"[1]; 2 h post s.c. dose, replicate 11",-118 mg/dL
same,ΔGlucose,"[1]; 2 h post s.c. dose, replicate 12",93 mg/dL
same,ΔGlucose,"[1]; 2 h post s.c. dose, replicate 13",-13 mg/dL
same,ΔGlucose,"[1]; 2 h post s.c. dose, replicate 14",18 mg/dL
same,ΔGlucose,"[1]; 2 h post s.c. dose, replicate 15",-36 mg/dL
same,ΔGlucose,"[1]; 2 h post s.c. dose, replicate 16",58 mg/dL
same,ΔGlucose,"[1]; 2 h post s.c. dose, replicate 17",-126 mg/dL
same,ΔGlucose,"[1]; 2 h post s.c. dose, replicate 18",-12 mg/dL
same,ΔGlucose,"[1]; 2 h post s.c. dose, replicate 19",-60 mg/dL
same,ΔGlucose,"[1]; 3 h post s.c. dose, replicate 1",-67 mg/dL
same,ΔGlucose,"[1]; 3 h post s.c. dose, replicate 2",-79 mg/dL
same,ΔGlucose,"[1]; 3 h post s.c. dose, replicate 3",-1 mg/dL
same,ΔGlucose,"[1]; 3 h post s.c. dose, replicate 4",32 mg/dL
same,ΔGlucose,"[1]; 3 h post s.c. dose, replicate 5",97 mg/dL
same,ΔGlucose,"[1]; 3 h post s.c. dose, replicate 6",-58 mg/dL
same,ΔGlucose,"[1]; 3 h post s.c. dose, replicate 7",20 mg/dL
same,ΔGlucose,"[1]; 3 h post s.c. dose, replicate 8",-73 mg/dL
same,ΔGlucose,"[1]; 3 h post s.c. dose, replicate 9",97 mg/dL
same,ΔGlucose,"[1]; 3 h post s.c. dose, replicate 10",-61 mg/dL
same,ΔGlucose,"[1]; 3 h post s.c. dose, replicate 11",-233 mg/dL
same,ΔGlucose,"[1]; 3 h post s.c. dose, replicate 12",-9 mg/dL
same,ΔGlucose,"[1]; 3 h post s.c. dose, replicate 13",-76 mg/dL
same,ΔGlucose,"[1]; 3 h post s.c. dose, replicate 14",-2 mg/dL
same,ΔGlucose,"[1]; 3 h post s.c. dose, replicate 15",-89 mg/dL
same,ΔGlucose,"[1]; 3 h post s.c. dose, replicate 16",57 mg/dL
same,ΔGlucose,"[1]; 3 h post s.c. dose, replicate 17",-188 mg/dL
same,ΔGlucose,"[1]; 3 h post s.c. dose, replicate 18",-49 mg/dL
same,ΔGlucose,"[1]; 3 h post s.c. dose, replicate 19",-86 mg/dL
same,ΔGlucose,"[1]; 4 h post s.c. dose, replicate 1",-114 mg/dL
same,ΔGlucose,"[1]; 4 h post s.c. dose, replicate 2",-145 mg/dL
same,ΔGlucose,"[1]; 4 h post s.c. dose, replicate 3",-76 mg/dL
same,ΔGlucose,"[1]; 4 h post s.c. dose, replicate 4",21 mg/dL
same,ΔGlucose,"[1]; 4 h post s.c. dose, replicate 5",89 mg/dL
same,ΔGlucose,"[1]; 4 h post s.c. dose, replicate 6",-90 mg/dL
same,ΔGlucose,"[1]; 4 h post s.c. dose, replicate 7",-30 mg/dL
same,ΔGlucose,"[1]; 4 h post s.c. dose, replicate 8",-110 mg/dL
same,ΔGlucose,"[1]; 4 h post s.c. dose, replicate 9",88 mg/dL
same,ΔGlucose,"[1]; 4 h post s.c. dose, replicate 10",-83 mg/dL
same,ΔGlucose,"[1]; 4 h post s.c. dose, replicate 11",-283 mg/dL
same,ΔGlucose,"[1]; 4 h post s.c. dose, replicate 12",-105 mg/dL
same,ΔGlucose,"[1]; 4 h post s.c. dose, replicate 13",-142 mg/dL
same,ΔGlucose,"[1]; 4 h post s.c. dose, replicate 14",-49 mg/dL
same,ΔGlucose,"[1]; 4 h post s.c. dose, replicate 15",-147 mg/dL
same,ΔGlucose,"[1]; 4 h post s.c. dose, replicate 16",24 mg/dL
same,ΔGlucose,"[1]; 4 h post s.c. dose, replicate 17",-217 mg/dL
same,ΔGlucose,"[1]; 4 h post s.c. dose, replicate 19",-118 mg/dL
same,ΔGlucose,"[1]; 5 h post s.c. dose, replicate 1",-180 mg/dL
same,ΔGlucose,"[1]; 5 h post s.c. dose, replicate 2",-224 mg/dL
same,ΔGlucose,"[1]; 5 h post s.c. dose, replicate 3",-181 mg/dL
same,ΔGlucose,"[1]; 5 h post s.c. dose, replicate 4",9 mg/dL
same,ΔGlucose,"[1]; 5 h post s.c. dose, replicate 5",29 mg/dL
same,ΔGlucose,"[1]; 5 h post s.c. dose, replicate 6",-129 mg/dL
same,ΔGlucose,"[1]; 5 h post s.c. dose, replicate 7",-47 mg/dL
same,ΔGlucose,"[1]; 5 h post s.c. dose, replicate 8",-151 mg/dL
same,ΔGlucose,"[1]; […] post s.c. dose, replicate 4",27 mg/dL
same,ΔGlucose,"[1]; […] post s.c. dose, replicate 12",-48 mg/dL
IGF-1: insulin-like growth factor 1,EC50,"SAOS2/B10 cells; geometric mean of all independent titrations, EdU incorporation, four-parameter fit, read-out: Cell Proliferation Assay Total Ave EC50",0.149 nM
same,EC50,"SAOS2/B10 cells; titration 2, read-out: Cell Proliferation Assay EC50-2",0.397 nM
same,EC50,"SAOS2/B10 cells; titration 3, read-out: Cell Proliferation Assay EC50-3",0.154 nM
same,EC50,"SAOS2/B10 cells; titration 4, read-out: Cell Proliferation Assay EC50-4",0.0819 nM
same,EC50,"SAOS2/B10 cells; titration 5, read-out: Cell Proliferation Assay EC50-5",0.103 nM
same,EC50,"SAOS2/B10 cells; titration 6, read-out: Cell Proliferation Assay EC50-6",0.0688 nM
same,EC50,"SAOS2/B10 cells; titration 7, read-out: Cell Proliferation Assay EC50-7",0.0568 nM
same,EC50,"SAOS2/B10 cells; titration 8, read-out: Cell Proliferation Assay EC50-8",0.842 nM
same,EC50,"SAOS2/B10 cells; titration 9, read-out: Cell Proliferation Assay EC50-9",0.438 nM
same,EC50,"SAOS2/B10 cells; titration 10, read-out: Cell Proliferation Assay EC50-10",0.153 nM
